Measurements as given in ChEMBL document CHEMBL1201862, “PubChem BioAssay data set” (2004).
Calls of active or inactive are those of the source.

Tests used:
[1] = M. tuberculosis H37Rv growth inhibitors, H37Rv strain (AID 1626); type: functional
Leucine aminopeptidase = target: T1, Leucine aminopeptidase (Plasmodium falciparum 3D7, UniProt Q8IL11); test: P. falciparum M17LAP inhibitors, primary screen, biochemical, fluorogenic H-Leu-NHMec substrate, 1536-well (AID 1619); type: functional
T1 sequence (Q8IL11 whole entry): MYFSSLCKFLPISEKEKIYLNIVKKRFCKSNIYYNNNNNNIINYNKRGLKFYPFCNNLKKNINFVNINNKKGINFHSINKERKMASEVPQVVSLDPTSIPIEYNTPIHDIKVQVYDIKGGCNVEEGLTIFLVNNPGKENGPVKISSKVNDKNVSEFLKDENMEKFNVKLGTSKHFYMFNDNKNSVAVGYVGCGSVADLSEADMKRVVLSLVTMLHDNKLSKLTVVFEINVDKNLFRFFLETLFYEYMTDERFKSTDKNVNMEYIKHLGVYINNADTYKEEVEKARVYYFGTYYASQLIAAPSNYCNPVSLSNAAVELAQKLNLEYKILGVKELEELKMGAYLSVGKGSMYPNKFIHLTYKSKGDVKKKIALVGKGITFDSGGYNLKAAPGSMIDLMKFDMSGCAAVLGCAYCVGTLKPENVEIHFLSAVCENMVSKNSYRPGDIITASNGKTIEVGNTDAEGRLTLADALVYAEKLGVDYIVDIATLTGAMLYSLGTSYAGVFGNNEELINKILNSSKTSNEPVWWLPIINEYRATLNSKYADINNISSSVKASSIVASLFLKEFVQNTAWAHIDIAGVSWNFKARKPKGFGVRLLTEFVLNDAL

[2] = target: T2, Histone-lysine N-methyltransferase NSD2 (Homo sapiens, UniProt O96028); type: biochemical
T2 sequence (O96028 whole entry): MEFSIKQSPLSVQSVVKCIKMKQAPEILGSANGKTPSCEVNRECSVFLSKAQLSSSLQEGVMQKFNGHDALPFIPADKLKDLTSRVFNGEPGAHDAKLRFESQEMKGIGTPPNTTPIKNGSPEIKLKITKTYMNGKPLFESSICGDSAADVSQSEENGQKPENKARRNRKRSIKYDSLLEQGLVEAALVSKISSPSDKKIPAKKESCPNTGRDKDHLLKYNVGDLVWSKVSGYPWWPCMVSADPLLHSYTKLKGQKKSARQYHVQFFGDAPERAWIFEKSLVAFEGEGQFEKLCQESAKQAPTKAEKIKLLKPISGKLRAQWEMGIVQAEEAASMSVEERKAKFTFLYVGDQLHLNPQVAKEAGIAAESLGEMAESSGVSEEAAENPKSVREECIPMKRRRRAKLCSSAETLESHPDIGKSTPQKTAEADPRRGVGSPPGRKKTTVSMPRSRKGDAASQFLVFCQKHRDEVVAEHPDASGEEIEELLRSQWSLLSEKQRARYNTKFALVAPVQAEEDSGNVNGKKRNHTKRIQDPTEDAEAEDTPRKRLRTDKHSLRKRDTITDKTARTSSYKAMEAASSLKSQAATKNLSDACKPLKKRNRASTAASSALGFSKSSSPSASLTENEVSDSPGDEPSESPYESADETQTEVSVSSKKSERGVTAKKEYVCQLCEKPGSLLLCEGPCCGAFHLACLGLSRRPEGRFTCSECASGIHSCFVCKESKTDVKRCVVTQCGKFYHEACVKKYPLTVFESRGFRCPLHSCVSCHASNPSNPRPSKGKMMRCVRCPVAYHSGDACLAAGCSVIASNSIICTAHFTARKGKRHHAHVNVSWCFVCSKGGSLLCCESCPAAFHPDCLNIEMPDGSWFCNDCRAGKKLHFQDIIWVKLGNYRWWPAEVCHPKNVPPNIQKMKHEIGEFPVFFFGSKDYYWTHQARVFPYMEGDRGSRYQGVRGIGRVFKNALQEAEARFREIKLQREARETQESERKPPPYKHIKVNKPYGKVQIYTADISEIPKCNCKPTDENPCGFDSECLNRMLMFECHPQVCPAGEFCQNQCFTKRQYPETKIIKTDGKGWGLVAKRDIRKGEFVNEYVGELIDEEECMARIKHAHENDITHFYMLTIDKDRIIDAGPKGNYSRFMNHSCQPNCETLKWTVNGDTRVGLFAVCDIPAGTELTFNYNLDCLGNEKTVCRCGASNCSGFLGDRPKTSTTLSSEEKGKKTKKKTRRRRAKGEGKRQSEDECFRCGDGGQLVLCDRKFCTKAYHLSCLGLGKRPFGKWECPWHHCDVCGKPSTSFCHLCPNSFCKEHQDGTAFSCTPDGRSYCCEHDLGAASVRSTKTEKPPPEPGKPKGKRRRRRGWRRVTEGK

cells = type: functional, cell-based; details: HEK-CNG
Galanin receptor type 3 = target: T3, Galanin receptor type 3 (Homo sapiens, UniProt O60755); test: Fluorescence-based cell-based primary high throughput dose response assay to identify antagonists of the Galanin Receptor 3 (GalR3).; type: functional
T3 sequence (O60755 whole entry): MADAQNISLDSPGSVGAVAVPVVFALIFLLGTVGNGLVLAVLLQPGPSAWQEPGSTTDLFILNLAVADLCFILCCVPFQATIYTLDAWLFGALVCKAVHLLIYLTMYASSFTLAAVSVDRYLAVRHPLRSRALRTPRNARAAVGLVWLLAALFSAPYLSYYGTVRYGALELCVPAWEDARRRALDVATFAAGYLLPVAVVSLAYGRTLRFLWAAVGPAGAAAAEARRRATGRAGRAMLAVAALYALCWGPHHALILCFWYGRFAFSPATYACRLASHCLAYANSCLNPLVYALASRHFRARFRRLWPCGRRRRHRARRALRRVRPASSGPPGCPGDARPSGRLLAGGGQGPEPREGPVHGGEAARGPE

Cytochrome P450 2C9 = Cytochrome P450 2C9 (Homo sapiens, UniProt P11712)
Chain of Cytochrome P450 2C9 (P11712 whole entry): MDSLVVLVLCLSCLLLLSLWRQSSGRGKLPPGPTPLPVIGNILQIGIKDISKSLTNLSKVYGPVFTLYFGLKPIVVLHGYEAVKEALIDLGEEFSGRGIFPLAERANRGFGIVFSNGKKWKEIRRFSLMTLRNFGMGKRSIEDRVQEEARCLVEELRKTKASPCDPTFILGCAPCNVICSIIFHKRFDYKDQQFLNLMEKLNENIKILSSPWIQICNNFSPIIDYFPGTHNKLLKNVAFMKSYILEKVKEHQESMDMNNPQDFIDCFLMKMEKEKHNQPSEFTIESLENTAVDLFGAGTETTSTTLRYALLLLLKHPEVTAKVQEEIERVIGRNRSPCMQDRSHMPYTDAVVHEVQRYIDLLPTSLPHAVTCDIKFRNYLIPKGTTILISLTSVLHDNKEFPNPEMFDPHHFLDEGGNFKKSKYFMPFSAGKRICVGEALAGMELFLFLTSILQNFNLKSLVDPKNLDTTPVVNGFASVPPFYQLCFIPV

Vero = test: cells; type: functional; details: Chlorocebus sabaeus
Paired box protein Pax-8 = Paired box protein Pax-8 (Homo sapiens, UniProt Q06710); test: inhibitors of PAX8-driven TPO luciferase reporter, dose response, RMG-I cells, cherry-pick (AID 687027); type: functional, cell-based;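 further: luciferase reporter driven by Pax8 target thyroperoxidase promoter measured by SteadyGlo luminescence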
Chain of Paired box protein Pax-8 (Q06710 whole entry): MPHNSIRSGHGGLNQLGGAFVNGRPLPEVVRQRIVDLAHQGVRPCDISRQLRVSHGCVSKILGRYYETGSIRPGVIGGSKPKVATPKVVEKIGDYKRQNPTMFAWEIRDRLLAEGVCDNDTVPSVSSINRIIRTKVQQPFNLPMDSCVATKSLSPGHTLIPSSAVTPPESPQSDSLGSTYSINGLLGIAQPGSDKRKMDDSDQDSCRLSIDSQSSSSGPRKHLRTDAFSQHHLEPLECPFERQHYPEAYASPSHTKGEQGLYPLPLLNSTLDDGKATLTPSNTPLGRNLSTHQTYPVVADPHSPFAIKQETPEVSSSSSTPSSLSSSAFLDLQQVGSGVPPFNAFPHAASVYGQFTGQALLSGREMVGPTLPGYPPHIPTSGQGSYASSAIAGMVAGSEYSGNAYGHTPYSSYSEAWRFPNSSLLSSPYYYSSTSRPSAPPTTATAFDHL

INS1 = test: beta cell apoptosis inhibitors, cytokine rescue, dose response, luminescence, retest (AID 449756); type: functional, cell-based; details: Rattus norvegicus;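 further: cell death triggered by IL-1 beta plus TNF-alpha plus IFN-gamma mixture; protective hits raise ATP signal compared with cytokine alone wells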
[3] = target: T4, Calpain-2 catalytic subunit (Sus scrofa, UniProt P43367); test: pig calpain II inhibitor potency, dose response, biochemical, fluorogenic peptide substrate (AID 1420); type: functional
T4 sequence (P43367 whole entry): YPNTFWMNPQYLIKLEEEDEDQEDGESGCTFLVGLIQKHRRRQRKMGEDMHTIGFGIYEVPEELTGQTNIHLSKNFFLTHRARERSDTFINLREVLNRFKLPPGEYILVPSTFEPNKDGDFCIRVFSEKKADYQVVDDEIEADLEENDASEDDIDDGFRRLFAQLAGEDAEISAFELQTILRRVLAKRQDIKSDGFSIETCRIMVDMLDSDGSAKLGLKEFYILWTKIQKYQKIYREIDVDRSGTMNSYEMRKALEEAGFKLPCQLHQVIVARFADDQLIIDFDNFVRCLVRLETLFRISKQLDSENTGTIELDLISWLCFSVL

Caspase-6 = target: T5, Caspase-6 (Homo sapiens, UniProt P55212); test: human caspase-6 inhibitors, dose response, biochemical, VEID-R110 fluorescence, cherry-pick (AID 720632)
T5 sequence (P55212 whole entry): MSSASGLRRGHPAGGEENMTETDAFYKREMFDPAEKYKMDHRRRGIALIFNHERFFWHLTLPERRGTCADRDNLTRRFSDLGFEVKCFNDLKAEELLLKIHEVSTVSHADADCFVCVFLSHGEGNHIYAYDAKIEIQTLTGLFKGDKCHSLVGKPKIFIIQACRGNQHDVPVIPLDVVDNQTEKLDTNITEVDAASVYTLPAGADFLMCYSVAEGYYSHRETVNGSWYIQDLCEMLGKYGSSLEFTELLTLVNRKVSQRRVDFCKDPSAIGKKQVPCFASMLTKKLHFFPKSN

[4] = target: Induced myeloid leukemia cell differentiation protein Mcl-1 (Homo sapiens, UniProt Q07820); type: functional
Chain of Induced myeloid leukemia cell differentiation protein Mcl-1 (Q07820 whole entry): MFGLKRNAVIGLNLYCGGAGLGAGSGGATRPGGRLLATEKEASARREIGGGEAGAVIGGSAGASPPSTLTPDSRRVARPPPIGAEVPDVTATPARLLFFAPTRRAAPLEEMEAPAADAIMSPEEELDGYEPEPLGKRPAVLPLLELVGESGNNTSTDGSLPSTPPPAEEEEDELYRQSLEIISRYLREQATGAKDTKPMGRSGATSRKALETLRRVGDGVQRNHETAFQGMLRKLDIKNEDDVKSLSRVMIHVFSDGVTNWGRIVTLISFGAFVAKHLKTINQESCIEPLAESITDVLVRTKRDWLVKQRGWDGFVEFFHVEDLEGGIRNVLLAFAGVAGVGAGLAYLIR
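Wherever EC50 is given: target is galanin receptor GalR3 read with a cAMP biosensor in HEK293 cells.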

CCOc1ccc(NC(=O)CCn2cccc2)cc1
IC50 [1]: > 100 µM (active)

Cc1ccc(-c2[nH]nc3c2C(c2ccoc2)C(C#N)=C(N)O3)cc1C (configuration not stated)
IC50 (Leucine aminopeptidase): 3.65 µM (active)

CN(C)c1ccc(CNCCC(Cc2ccccc2)c2ccco2)cc1 (configuration not stated)
AC50 [2]: > 20 µM (inactive)

Nc1nn2c(O)c3c(nc2c1N=Nc1ccccc1)CCCC3
EC50 (cells): > 29.9 µM (inactive)
IC50 (Galanin receptor type 3): 3.7 µM (active)
AC50 (Cytochrome P450 2C9): 8.91 µM (inconclusive)

Cc1ccc(NC(=O)CCn2cnc3ccccc3c2=O)cc1Cl
IC50 [1]: > 100 µM (active)

CCOc1ccc(NC=C2C(=O)CC(C)(C)CC2=O)cc1
IC50 [1]: > 100 µM (active)

COc1ccc(-c2csc(NC(=O)c3ccccc3NS(=O)(=O)c3ccc(F)c(F)c3)n2)cc1
EC50 (cells): > 29.9 µM (inactive)
IC50 (Galanin receptor type 3): 1.4 µM (active)
CC50 (Vero): 2.03 µM (active)
AC50 (Paired box protein Pax-8): 2.64 µM (active)
AC50 (INS1): 3.05 µM (active)
IC50 [3]: > 50 µM (not active)

CSc1nc2ccc(NS(=O)(=O)c3cccc(Cl)c3Cl)cc2s1
IC50 [1]: > 100 µM (active)

O=c1nc2s/c(=C\c3ccc(-c4ccccc4[N+](=O)[O-])o3)c(=O)n2nc1-c1ccccc1
AC50 (Caspase-6): 18 µM (active)
IC50 [4]: 9.66 µM (active)
